Data reported in PubChem BioAssay AID2060501 (Molecular Pharmacology Branch, DTP, NCI, 2025).

System: 282377-053-R-J1-PDC complex spheroids, viability
Test: Anticancer human tumor 282377-053-R-J1-PDC patient-derived colon adenocarcinoma cell line growth inhibition [GQUAD]
Conditions: for IC50: curve of first compound; for viability, T/C: stronger effect = lower value
In short: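 Multi-cell-type spheroids of tumor cells with HUVEC and mesenchymal stem cells, treated with drug combinations. Concentrations descend in half-log steps from near clinical Cmax, or from 10 microM where Cmax is unknown; viability read-out.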

[1] = second compound 0.0316 µM, first compound 0.0316 µM
[2] = second compound 0.0316 µM, first compound 0.1 µM
[3] = second compound 0.0316 µM, first compound 0.316 µM
[4] = second compound 0.0316 µM, first compound 1 µM
[5] = second compound 0.0316 µM, first compound 3.16 µM
[6] = second compound 0.0316 µM, first compound 10 µM
[7] = second compound 0.1 µM, first compound 0.0316 µM
[8] = second compound 0.1 µM, first compound 0.1 µM
[9] = second compound 0.1 µM, first compound 0.316 µM
[10] = second compound 0.1 µM, first compound 1 µM
[11] = second compound 0.1 µM, first compound 3.16 µM
[12] = second compound 0.1 µM, first compound 10 µM
[13] = second compound 0.316 µM, first compound 0.0316 µM
[14] = second compound 0.316 µM, first compound 0.1 µM
[15] = second compound 0.316 µM, first compound 0.316 µM
[16] = second compound 0.316 µM, first compound 1 µM
[17] = second compound 0.316 µM, first compound 3.16 µM
[18] = second compound 0.316 µM, first compound 10 µM
[19] = second compound 1 µM, first compound 0.0316 µM
[20] = second compound 1 µM, first compound 0.1 µM
[21] = second compound 1 µM, first compound 0.316 µM
[22] = second compound 1 µM, first compound 1 µM
[23] = second compound 1 µM, first compound 3.16 µM
[24] = second compound 1 µM, first compound 10 µM
[25] = second compound 3.16 µM, first compound 0.0316 µM
[26] = second compound 3.16 µM, first compound 0.1 µM
[27] = second compound 3.16 µM, first compound 0.316 µM
[28] = second compound 3.16 µM, first compound 1 µM
[29] = second compound 3.16 µM, first compound 3.16 µM
[30] = second compound 3.16 µM, first compound 10 µM
[31] = second compound 10 µM, first compound 0.0316 µM
[32] = second compound 10 µM, first compound 0.1 µM
[33] = second compound 10 µM, first compound 0.316 µM
[34] = second compound 10 µM, first compound 1 µM
[35] = second compound 10 µM, first compound 3.16 µM
[36] = second compound 10 µM, first compound 10 µM
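Further: spheroids exposed to compounds for 7 days before readout.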
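Wherever viability, T/C is given: percent of vehicle DMSO control viability with 100% = untreated-like growth.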

**Q.** What does the source list for `C#Cc1c(F)ccc2cc(O)cc(-c3ncc4c(N5CC6CCC(C5)N6)nc(OCC56CCCN5CC(F)C6)nc4c3F)c12` (stereo unspecified) + Cc1[nH]c2ccc(F)cc2c1-c1nc2c3cccnc3c3ncccc3c2[nH]1?
**A.** IC50 (second compound 0.0316 µM): 1.89 µM; IC50 (second compound 0.1 µM): 1.28 µM; IC50 (second compound 0.316 µM): 1.37 µM; IC50 (second compound 1 µM): 0.825 µM; IC50 (second compound 3.16 µM): 0.0359 µM; IC50 (second compound 10 µM): < 0.0316 µM; viability, T/C [1]: 108%; viability, T/C [2]: 95.5%; viability, T/C [3]: 82.2%; viability, T/C [4]: 83.2%; viability, T/C [5]: 20.6%; viability, T/C [6]: 26%; viability, T/C [7]: 104%; viability, T/C [8]: 114%; viability, T/C [9]: 98.3%; viability, T/C [10]: 59.6%; viability, T/C [11]: 13.2%; viability, T/C [12]: 22.9%; viability, T/C [13]: 96.9%; viability, T/C [14]: 102%; viability, T/C [15]: 90.4%; viability, T/C [16]: 64.4%; viability, T/C [17]: 9.13%; viability, T/C [18]: 13.3%; viability, T/C [19]: 105%; viability, T/C [20]: 110%; viability, T/C [21]: 102%; viability, T/C [22]: 39.5%; viability, T/C [23]: 6.79%; viability, T/C [24]: 6.81%; viability, T/C [25]: 52.7%; viability, T/C [26]: 28.4%; viability, T/C [27]: 15.7%; viability, T/C [28]: 3.57%; viability, T/C [29]: 1.91%; viability, T/C [30]: 1.84%; viability, T/C [31]: 34.4%; viability, T/C [32]: 15.4%; viability, T/C [33]: 14.7%; viability, T/C [34]: 2.45%; viability, T/C [35]: 1.52%; viability, T/C [36]: 1.43%

**Q.** With `C=CC(=O)N1CCN(c2nc(=O)n(-c3c(C)ccnc3C(C)C)c3nc(-c4c(O)cccc4F)c(F)cc23)C(C)C1` (stereo unspecified) + Cc1[nH]c2ccc(F)cc2c1-c1nc2c3cccnc3c3ncccc3c2[nH]1 as the molecule, how does the IC50 (second compound 0.0316 µM) read?
**A.** > 10 µM

**Q.** What about the IC50 (second compound 0.1 µM) of the same molecule?
**A.** > 10 µM

**Q.** And the IC50 (second compound 0.316 µM)?
**A.** > 10 µM

**Q.** And the IC50 (second compound 1 µM)?
**A.** > 10 µM

**Q.** What about the IC50 (second compound 3.16 µM) of the same molecule?
**A.** 9.67 µM

**Q.** And the IC50 (second compound 10 µM)?
**A.** < 0.0316 µM

**Q.** And the viability, T/C [1]?
**A.** 106%

**Q.** And the viability, T/C [2]?
**A.** 102%

**Q.** What about the viability, T/C [3] of the same molecule?
**A.** 125%

**Q.** And the viability, T/C [4]?
**A.** 108%

**Q.** What about the viability, T/C [5] of the same molecule?
**A.** 126%

**Q.** What about the viability, T/C [6] of the same molecule?
**A.** 80.9%

**Q.** And the viability, T/C [7]?
**A.** 122%

**Q.** And the viability, T/C [8]?
**A.** 110%

**Q.** What about the viability, T/C [9] of the same molecule?
**A.** 98.9%

**Q.** What about the viability, T/C [10] of the same molecule?
**A.** 100%

**Q.** What about the viability, T/C [11] of the same molecule?
**A.** 100%

**Q.** What about the viability, T/C [12] of the same molecule?
**A.** 89.9%

**Q.** And the viability, T/C [13]?
**A.** 109%

**Q.** And the viability, T/C [14]?
**A.** 110%

**Q.** What about the viability, T/C [15] of the same molecule?
**A.** 87.1%

**Q.** What about the viability, T/C [16] of the same molecule?
**A.** 122%

**Q.** And the viability, T/C [17]?
**A.** 105%

**Q.** And the viability, T/C [18]?
**A.** 99.8%

**Q.** What about the viability, T/C [19] of the same molecule?
**A.** 114%

**Q.** What about the viability, T/C [20] of the same molecule?
**A.** 98.1%

**Q.** What about the viability, T/C [21] of the same molecule?
**A.** 103%

**Q.** What about the viability, T/C [22] of the same molecule?
**A.** 106%

**Q.** And the viability, T/C [23]?
**A.** 119%

**Q.** What about the viability, T/C [24] of the same molecule?
**A.** 103%

**Q.** And the viability, T/C [25]?
**A.** 82.1%

**Q.** What about the viability, T/C [26] of the same molecule?
**A.** 108%

**Q.** And the viability, T/C [27]?
**A.** 71.5%

**Q.** And the viability, T/C [28]?
**A.** 75.9%

**Q.** What about the viability, T/C [29] of the same molecule?
**A.** 98.4%

**Q.** And the viability, T/C [30]?
**A.** 48.8%

**Q.** And the viability, T/C [31]?
**A.** 28.3%

**Q.** What about the viability, T/C [32] of the same molecule?
**A.** 32%

**Q.** And the viability, T/C [33]?
**A.** 37.6%

**Q.** What about the viability, T/C [34] of the same molecule?
**A.** 40%

**Q.** What about the viability, T/C [35] of the same molecule?
**A.** 31%

**Q.** What about the viability, T/C [36] of the same molecule?
**A.** 27.2%

**Q.** With `CC(=O)O[C@H]1C(=O)[C@@]2(C)[C@H]([C@H](OC(=O)c3ccccc3)[C@]3(O)C[C@H](OC(=O)[C@H](O)[C@@H](NC(=O)c4ccccc4)c4ccccc4)C(C)=C1C3(C)C)[C@]1(OC(C)=O)CO[C@@H]1C[C@@H]2O` + Cc1[nH]c2ccc(F)cc2c1-c1nc2c3cccnc3c3ncccc3c2[nH]1 as the molecule, how does the IC50 (second compound 0.0316 µM) read?
**A.** 0.519 µM

**Q.** What about the IC50 (second compound 0.1 µM) of the same molecule?
**A.** 0.584 µM

**Q.** What about the IC50 (second compound 0.316 µM) of the same molecule?
**A.** 0.519 µM

**Q.** And the IC50 (second compound 1 µM)?
**A.** 0.617 µM

**Q.** What about the IC50 (second compound 3.16 µM) of the same molecule?
**A.** 0.424 µM

**Q.** And the IC50 (second compound 10 µM)?
**A.** < 0.0316 µM

**Q.** What about the viability, T/C [1] of the same molecule?
**A.** 115%

**Q.** And the viability, T/C [2]?
**A.** 112%

**Q.** And the viability, T/C [3]?
**A.** 84.6%

**Q.** What about the viability, T/C [4] of the same molecule?
**A.** 4.01%

**Q.** And the viability, T/C [5]?
**A.** 0.1%

**Q.** What about the viability, T/C [6] of the same molecule?
**A.** 0.12%

**Q.** What about the viability, T/C [7] of the same molecule?
**A.** 108%

**Q.** What about the viability, T/C [8] of the same molecule?
**A.** 107%

**Q.** And the viability, T/C [9]?
**A.** 106%

**Q.** What about the viability, T/C [10] of the same molecule?
**A.** 3.64%

**Q.** What about the viability, T/C [11] of the same molecule?
**A.** 0.06%

**Q.** What about the viability, T/C [12] of the same molecule?
**A.** 0.09%

**Q.** And the viability, T/C [13]?
**A.** 107%

**Q.** What about the viability, T/C [14] of the same molecule?
**A.** 111%

**Q.** And the viability, T/C [15]?
**A.** 79.5%

**Q.** What about the viability, T/C [16] of the same molecule?
**A.** 10.8%

**Q.** What about the viability, T/C [17] of the same molecule?
**A.** 0.05%

**Q.** And the viability, T/C [18]?
**A.** 0.21%

**Q.** And the viability, T/C [19]?
**A.** 116%

**Q.** And the viability, T/C [20]?
**A.** 90.3%

**Q.** And the viability, T/C [21]?
**A.** 110%

**Q.** What about the viability, T/C [22] of the same molecule?
**A.** 9.92%

**Q.** And the viability, T/C [23]?
**A.** 0.04%

**Q.** And the viability, T/C [24]?
**A.** 0.07%

**Q.** What about the viability, T/C [25] of the same molecule?
**A.** 92.8%

**Q.** What about the viability, T/C [26] of the same molecule?
**A.** 109%

**Q.** And the viability, T/C [27]?
**A.** 66%

**Q.** What about the viability, T/C [28] of the same molecule?
**A.** 4.89%

**Q.** And the viability, T/C [29]?
**A.** 0.11%

**Q.** What about the viability, T/C [30] of the same molecule?
**A.** 0.1%

**Q.** What about the viability, T/C [31] of the same molecule?
**A.** 36.7%

**Q.** What about the viability, T/C [32] of the same molecule?
**A.** 43.9%

**Q.** And the viability, T/C [33]?
**A.** 59.1%

**Q.** And the viability, T/C [34]?
**A.** 10.1%

**Q.** And the viability, T/C [35]?
**A.** 0.17%

**Q.** And the viability, T/C [36]?
**A.** 0.46%
